Results as given in ChEMBL document CHEMBL1140223, “Novel multifunctional acyloxyalkyl ester prodrugs of 5-aminolevulinic acid display improved anticancer activity independent and dependent on photoactivation” (J Med Chem, 2008).
Calls of active or inactive are those of the source. The rule behind the calls is not given here.

What was measured:
U-251 [1] = assay: Induction of apoptosis in human U251 cells assessed as early apoptotic cells at 100 uM after 48 hrs using annexin-V FITC and PI staining by flow cytometry in presence of Z-Asp-2,6-dichlorobenzoyloxymethylketone; format: functional
MCF7 = assay: Cytotoxicity against human MCF7 cells after 72 hrs by Hoechst test; format: functional, cell-based; details: MCF7, 72 h
U-251 [2] = assay: Induction of apoptosis in human U251 cells assessed as late apoptotic cells at 100 uM after 48 hrs using annexin-V FITC and PI staining by flow cytometry in presence of Ac-LEHD-CHO; format: functional
U-251 [3] = assay: Inhibition of 26S proteasome activity in human U251 cells at 100 uM after 48 hrs in presence of N-acetyl-L-cysteine relative to control; format: cell-based; details: values are per cent of control
[4] = Cytotoxicity against human MCF7/DX cells after 72 hrs by Hoechst test; format: functional, cell-based
U-251 [5] = assay: Induction of apoptosis in human U251 cells assessed as mitochondrial membrane potential dissipation at 100 uM after 24 hrs using JC1 dye by FACS relative to control; format: functional
U-251 [6] = assay: Induction of apoptosis in human U251 cells assessed as late apoptotic cells at 100 uM after 48 hrs using annexin-V FITC and PI staining by flow cytometry in presence of Z-Asp-2,6-dichlorobenzoyloxymethylketone; format: functional
U-251 [7] = assay: Reduction in c-myc expression levels in human U251 cells at 100 uM after 4 hrs by Western blot; format: functional, cell-based
U-251 [8] = assay: Increase in heme level in human U251 cells assessed as porphobilinogen deaminase level at 100 uM after 2 hrs by Western blot in presence of cycloheximide; format: functional, cell-based
U-251 [9] = assay: Induction of apoptosis in human U251 cells assessed as increase in cleaved caspase 3 level after 24 hrs by Western blot; format: functional, cell-based
U-251 [10] = assay: Increase in ROS production in human U251 cells at 50 uM after 4 hrs by FACS flow cytometry; format: functional
U-251 [11] = assay: Induction of necrosis in human U251 cells assessed as necrotic cells at 100 uM after 48 hrs using annexin-V FITC and PI staining by flow cytometry in presence of Z-Asp-2,6-dichlorobenzoyloxymethylketone; format: functional
U-251 [12] = assay: Cytotoxicity against human U251 cells assessed as ROS production by Hoechst test in presence of N-acetyl-L-cysteine; format: functional, cell-based
U-251 [13] = assay: Increase in protoporphyrin 9 levels in human U251 cells at 200 uM after 24 hrs relative to control; format: functional
U-251 [14] = assay: Induction of apoptosis in human U251 cells assessed as viable cells at 100 uM after 48 hrs using annexin-V FITC and PI staining by flow cytometry in presence of Z-Asp-2,6-dichlorobenzoyloxymethylketone; format: functional; details: U-251, 48 h, read-out: Activity
U-251 [15] = assay: Cytotoxicity against human U251 cells after 72 hrs by Hoechst test; format: functional, cell-based; details: U-251, 72 h
U-251 [16] = assay: Antiproliferative activity against human U251 cells assessed as PpIX release after 72 hrs by Hoechst test; format: functional, cell-based; details: U-251, 72 h
U-251 [17] = assay: Induction of histone H4 hyperacetylation in human U251 cells at 100 uM after 4 hrs by Western blot relative to control; format: functional
U-251 [18] = assay: Induction of apoptosis in human U251 cells assessed as early apoptotic cells at 100 uM after 48 hrs using annexin-V FITC and PI staining by flow cytometry in presence of Ac-LEHD-CHO; format: functional
HL-60 = assay: Cytotoxicity against human HL60 cells after 72 hrs by MTT assay; format: functional, cell-based; details: HL-60, 72 h
U-251 [19] = assay: Increase in pERK expression levels in human U251 cells at 100 uM after 2 hrs by Western blot relative to control; format: functional
U-251 [20] = assay: Induction of apoptosis in human U251 cells assessed as increase in full length caspase 8 level after 24 hrs by Western blot; format: functional, cell-based
U-251 [21] = assay: Induction of apoptosis in human U251 cells assessed as late apoptotic cells at 100 uM after 48 hrs using annexin-V FITC and PI staining by flow cytometry; format: functional
U-251 [22] = assay: Increase in protoporphyrin 9 levels in human U251 cells at 100 uM after 24 hrs relative to control; format: functional
U-251 [23] = assay: Induction of necrosis in human U251 cells assessed as necrotic cells at 100 uM after 48 hrs using annexin-V FITC and PI staining by flow cytometry in presence of Ac-LEHD-CHO; format: functional
U-251 [24] = assay: Increase in ROS production in human U251 cells at 50 uM after 4 hrs by FACS flow cytometry in presence of N-acetyl-L-cysteine; format: functional, cell-based
U-251 [25] = assay: Induction of histone H4 hyperacetylation in human U251 cells at 100 uM after 24 hrs by Western blot relative to control; format: functional
U-251 [26] = assay: Inhibition of 26S proteasome activity in human U251 cells at 100 uM after 24 hrs relative to control; format: cell-based
U-251 [27] = assay: Increase in heme level in human U251 cells assessed as porphobilinogen deaminase level at 100 uM after 2 hrs by Western blot relative to control; format: functional
U-251 [28] = assay: Inhibition of 26S proteasome activity in human U251 cells at 100 uM after 48 hrs relative to control; format: cell-based; details: values are per cent of control
U-251 [29] = assay: Increase in pH2AX expression levels in human U251 cells at 100 uM after 2 hrs by Western blot; format: functional, cell-based
U-251 [30] = assay: Induction of apoptosis in human U251 cells assessed as viable cells at 100 uM after 48 hrs using annexin-V FITC and PI staining by flow cytometry in presence of Ac-LEHD-CHO; format: functional; details: U-251, 48 h, read-out: Activity
U-251 [31] = assay: Induction of apoptosis in human U251 cells assessed as increase in cleaved caspase 9 level after 24 hrs by Western blot; format: functional, cell-based
U-251 [32] = assay: Increase in p-c-Jun expression levels in human U251 cells at 100 uM after 2 hrs by Western blot relative to control; format: functional
U-251 [33] = assay: Increase in CDKp21 expression levels in human U251 cells at 100 uM after 4 hrs by Western blot; format: functional, cell-based
U-251 [34] = assay: Induction of apoptosis in human U251 cells assessed as early apoptotic cells at 100 uM after 48 hrs using annexin-V FITC and PI staining by flow cytometry; format: functional
U-251 [35] = assay: Induction of necrosis in human U251 cells assessed as necrotic cells at 100 uM after 48 hrs using annexin-V FITC and PI staining by flow cytometry; format: functional
U-251 [36] = assay: Antiproliferative activity against human U251 cells assessed as PpIX release pretreated 72 hrs before 360-410 nm light photosensitization measured after 48 hrs by Hoechst test; format: functional, cell-based
U-251 [37] = assay: Induction of apoptosis in human U251 cells assessed as viable cells at 100 uM after 48 hrs using annexin-V FITC and PI staining by flow cytometry; format: functional; details: U-251, 48 h, read-out: Activity
U-251 [38] = assay: Increase in heme level in human U251 cells at 100 uM after 48 hrs by Western blot relative to control; format: functional
U-251 [39] = assay: Increase in ROS production in human U251 cells at 100 uM after 4 hrs by FACS in presence of N-acetyl-L-cysteine; format: functional, cell-based
U-251 [40] = assay: Increase in ROS production in human U251 cells at 100 uM after 4 hrs by FACS; format: functional, cell-based
U-251 [41] = assay: Inhibition of 26S proteasome activity in human U251 cells at 0.5 mM after 24 hrs; format: cell-based
U-251 [42] = assay: Increase in CDKp21 expression levels in human U251 cells at 100 uM after 24 hrs by Western blot; format: functional, cell-based
U-251 [43] = assay: Inhibition of 26S proteasome activity in human U251 cells at 1 mM after 48 hrs; format: cell-based

| Structure (SMILES) | Activity (U-251 [1]) | IC50 (MCF7) | Activity (U-251 [2]) | residual activity (U-251 [3]) | IC50 [4] | Activity (U-251 [6]) | Activity (U-251 [8]) | Activity (U-251 [11]) | viability at 100 µM (U-251 [14]) | IC50 (U-251 [15]) | Activity (U-251 [18]) | IC50 (HL-60) | Activity (U-251 [21]) | Activity (U-251 [23]) | fold change (FC) (U-251 [27]) | residual activity (U-251 [28]) | viability at 100 µM (U-251 [30]) | Activity (U-251 [34]) | Activity (U-251 [35]) | viability at 100 µM (U-251 [37]) | also measured |
| --- | --- | --- | --- | --- | --- | --- | --- | --- | --- | --- | --- | --- | --- | --- | --- | --- | --- | --- | --- | --- | --- |
| CCCC(=O)OCOC(=O)CCC(=O)CN.Cl | 4% | 74 µM | 2% | 64% | 84 µM | 5% | inactive | 11% | 80% | 89 µM | 2% | 57 µM | 17% | 15% | 8 | 56% | 81% | 17% | 19% | 47% | fold change (FC) (U-251 [5]): 2.4; Activity (U-251 [7]): Active; Activity (U-251 [9]): Active; Activity (U-251 [10]): 68%; Activity (U-251 [12]): Active; fold change (FC) (U-251 [13]): 12.4; IC50 (U-251 [16]): 99 µM; fold change (FC) (U-251 [17]): 1.4; fold change (FC) (U-251 [19]): 5.4; Activity (U-251 [20]): Active; fold change (FC) (U-251 [22]): 6.6; Activity (U-251 [24]): Active; fold change (FC) (U-251 [25]): 2; inhibition (U-251 [26]): 40%; Activity (U-251 [29]): Active; Activity (U-251 [31]): Active; fold change (FC) (U-251 [32]): 9.5; Activity (U-251 [33]): Active; IC50 (U-251 [36]): 59 µM; Activity (U-251 [38]): 260% |
| CCCC(=O)O [BUTYRIC ACID] | – | – | – | 80% | – | – | – | – | – | 932 µM | – | – | – | – | – | 74% | – | – | – | – | Activity (U-251 [39]): Active; Activity (U-251 [40]): Active; Activity (U-251 [41]): Active; Activity (U-251 [38]): 126% |
| CCCC(=O)OC(C)OC(=O)CCC(=O)CN.Cl (centres undefined) | 2% | 714 µM | 3% | 146% | 807 µM | 3% | – | 7% | 88% | 728 µM | 3% | 274 µM | 6% | 8% | 2 | 117% | 86% | 4% | 10% | 80% | Activity (U-251 [10]): Active; Activity (U-251 [12]): Active; fold change (FC) (U-251 [13]): 7.8; IC50 (U-251 [16]): 767 µM; fold change (FC) (U-251 [17]): 1.4; Activity (U-251 [42]): Active; fold change (FC) (U-251 [22]): 5; IC50 (U-251 [36]): 509 µM |
| CCCC(CCC)C(=O)OCOC(=O)CCC(=O)CN | – | – | – | – | – | – | – | – | – | 64 µM | – | – | – | – | – | – | – | – | – | – | – |
| CCCC(CCC)C(=O)OC(C)OC(=O)CCC(=O)CN (centres undefined) | – | – | – | – | – | – | – | – | – | 1040 µM | – | 780 µM | – | – | – | – | – | – | – | – | – |
| CC(C)(C)C(=O)OCOC(=O)CCC(=O)CN.Cl | 2% | 64 µM | 4% | 101% | 61 µM | 5% | Active | 11% | 82% | 93 µM | 2% | 44 µM | 9% | 17% | 2 | 54% | 77% | 15% | 9% | 67% | fold change (FC) (U-251 [5]): 3; Activity (U-251 [9]): Active; Activity (U-251 [12]): inactive; Activity (U-251 [17]): inactive; Activity (U-251 [20]): Active; Activity (U-251 [24]): inactive; Activity (U-251 [31]): Active |
| CC(OC(=O)CCC(=O)CN)OC(=O)C(C)(C)C (centres undefined) | – | – | – | – | – | – | – | – | – | 2040 µM | – | 1390 µM | – | – | – | – | – | – | – | – | – |
| CCCC(=O)OCOP(=O)(OCC)OCC [(DIETHOXYPHOSPHORYLOXY)METHYL BUTYRATE] | – | – | – | – | – | – | – | – | – | 89 µM | – | – | – | – | – | – | – | – | – | – | Activity (U-251 [13]): inactive; Activity (U-251 [24]): Active; Activity (U-251 [26]): Active |
| NCC(=O)CCC(=O)O [AMINOLEVULINIC ACID] | 2% | 1740 µM | 3% | 102% | 3480 µM | 5% | Active | 17% | 76% | 2660 µM | 2% | 1570 µM | 14% | 17% | 2 | 100% | 78% | 6% | 7% | 76% | Activity (U-251 [43]): Active; Activity (U-251 [39]): inactive; fold change (FC) (U-251 [13]): 7.2; IC50 (U-251 [16]): 2720 µM; Activity (U-251 [20]): Active; fold change (FC) (U-251 [22]): 3; Activity (U-251 [40]): Active; IC50 (U-251 [36]): 2720 µM; Activity (U-251 [38]): 130% |
